# Experimental data: article PMC8199124, “Design, Synthesis and In-Vitro Biological Evaluation of Antofine and Tylophorine Prodrugs as Hypoxia-Targeted Anticancer Agents” (Molecules, 2021)
# Like-named read-outs stand apart in the source and are kept apart here.
# Assays:
# [1] = Solubility in PBS (pH 7.4); format: physicochemical; conditions: aqueous buffer, mean ± SE
# Method: (§1) Water solubility, logD, and PAMPA-BBB were evaluated using the protocols we previously described.
# CHO-K1 = experiment: Cytotoxicity (MTT) under normoxia, CHO-K1; format: cell-based, Chinese hamster; conditions: Cricetulus griseus
# Method: (§2) The cytotoxicity of the compounds 5a–c and their parent alkaloids was evaluated by the 3-[4,5-dimethylthiazole-2-yl]-2,5-diphenyltetrazolium bromide (MTT) assay against 5 cancerous and 2 non-cancerous cell lines (Table 4).
# (§3) The eight cell lines HEK293 (Human embryonic kidney 293), CHO-K1 (Chinese hamster ovary K1), MCF-7 cells (Human breast adenocarcinoma), HCT116 (human colorectal carcinoma), RKO (Human rectal carcinoma), SW480 (human colorectal carcinoma), H460 (Human lung cancer), and MRC5 (Normal human foetal lung fibroblast), were obtained from the ATCC. The cell lines were routinely grown in alpha minimum essential medium (α-MEM) containing 5% foetal calf serum (FCS). The appropriate number of cells (HCT116 = 400 cells/well, H460 cells = 600 cells/well) were seeded into 96-well plates under normoxic or hypoxic conditions. Cells were plated in 100 µL α-MEM containing 10% FCS, 10mM D-Glucose and 0.2mM 2′-deoxycytidine. After incubation for 2 h, the compounds were added at the appropriate concentration and incubated for further 4 h. The cells were then washed three times with drug-free α-MEM (containing 5% FCS and pen/strep). The plates were then incubated for 5 days under normoxic conditions. The cells were stained with sulphorhodamine B to measure total cells. The IC50 was determined by interpolation as the compound concentration reducing staining to 50% of controls on the same plate.
# RKO = experiment: Cytotoxicity (MTT) under normoxia, RKO; format: cell-based; conditions: Homo sapiens, read-out: IC50 RKO
# Method: as §2, §3
# MCF7 = experiment: Cytotoxicity (MTT) under normoxia, MCF7; format: cell-based; conditions: Homo sapiens
# Method: as §2, §3
# [2] = BBB-Parallel Artificial Membrane Permeability Assay (BBB-PAMPA); format: in vitro ADME; conditions: mean ± SE
# Method: The physicochemical properties of the new compounds were evaluated (Table 1). […] Consequently, these derivatives lost their BBB penetrability, as predicted by the BBB-Parallel Artificial Membrane Permeability Assay (BBB-PAMPA), whereas their parent alkaloids had free passage through the BBB.
# as §1
# LogD determination = format: physicochemical; conditions: mean ± SE
# Method: as §1
# in vitro = conditions: male, Balb/c, pH 7.4
# Method: Mouse hepatic microsomes were isolated from pooled, perfused livers of Balb/c male mice according to the standard protocol. […] Microsomal incubations were carried out in 96-well plates in 5 aliquots of 40 μL each. […] Control incubations were performed by replacing the NADPH-cofactor system with PBS. The additional control incubations in PBS (with 3.3 mM MgCl2) without added microsomes were carried out in this study. […] The incubations were performed in duplicates. Five time points over 40 min had been analyzed. The reactions were stopped by adding 12 volumes of 90% acetonitrile-water to incubation aliquots, followed by protein sedimentation by centrifuging at 5500 rpm for 3 min. The supernatants were analyzed using LC-MS as mentioned above.
# H460 = experiment: Cytotoxicity under normoxia and hypoxia (anaerobic chamber, sulphorhodamine B), H460; format: cell-based, human; conditions: for IC50: 4 h exposure, 5 days growth; for DR (Deactivation Ratio): DR = IC50 (prodrug)/IC50 (parent drug)
# Method: (§4) We also checked if the designed prodrugs were able to liberate the active alkaloids in hypoxic tumors by testing them under hypoxic conditions using an anaerobic chamber. The three prodrugs 5a–c and their parent alkaloids as well as the reference compounds PR-104A, the parent alcohol form of the phosphate pre-prodrug PR-104, and evofosfamide were tested using the HCT116 and H460 cell lines under both normoxic and hypoxic conditions (Table 5). The prodrugs were much less cytotoxic than the parent drugs, in agreement with our observations using the other cell lines described above (Figure 6).
# (§5) The extent to which a prodrug is deactivated relative to its parent drug under normoxic conditions is defined as the Deactivation Ratio (DR). The DR can be simply calculated as DR = IC50 (prodrug)/IC50 (parent drug).
# (§6) The efficacy of prodrug activation under hypoxic conditions can be expressed by the Hypoxia Cytotoxicity Ratio (HCR), which can be calculated for a given prodrug as: HCR = normoxic IC50/hypoxic IC50.
# as §3
# HCT116 [3] = experiment: Cytotoxicity (MTT) under normoxia, HCT116; format: cell-based; conditions: Homo sapiens
# Method: as §2, §3
# MRC5 = experiment: Cytotoxicity (MTT) under normoxia, MRC5; format: cell-based; conditions: Homo sapiens
# Method: as §2, §3
# HEK293 = experiment: Cytotoxicity (MTT) under normoxia, HEK293; format: cell-based; conditions: Homo sapiens
# Method: as §2, §3
# SW480 = experiment: Cytotoxicity (MTT) under normoxia, SW480; format: cell-based; conditions: Homo sapiens
# Method: as §2, §3
# [4] = Plasma protein binding (PPB); format: in vitro ADME; conditions: mean ± SE, read-out: PPB (% of Bound Compound) (converted)
# Method: The physicochemical properties of the new compounds were evaluated (Table 1).
# HCT116 [5] = experiment: Cytotoxicity under normoxia and hypoxia (anaerobic chamber, sulphorhodamine B), HCT116; format: cell-based, human; conditions: for IC50: 4 h exposure, 5 days growth; for DR (Deactivation Ratio): DR = IC50 (prodrug)/IC50 (parent drug)
# Method: as §4, §5, §6, §3
# [6] = Mouse plasma stability test; format: in vitro ADME; conditions: 37 °C, up to 24 h, read-out: t1/2 (Mouse Plasma) (converted)
# Method: (§7) Incubations were carried out in 6 aliquots of 70 μL each in duplicates. […] The reactions were stopped by adding 350 μL of acetonitrile with subsequent plasma proteins sedimentation by centrifuging at 5500 rpm for 5 min. Supernatants were analyzed by LC-MS using Shimadzu VP HPLC system including vacuum degasser, gradient pumps, reverse phase column, column oven and autosampler. The HPLC system was coupled with tandem mass spectrometer API 3000 (PE Sciex, Foster City, CA, USA). Both the positive and negative ion modes of the TurboIonSpray ion source were used. The acquisition and analysis of the data were performed using Analyst 1.5.2 software (PE Sciex, API 3000 mass spectrometer, Foster City, CA, USA). The percentage of the test compounds remaining after incubation in plasma and their half-lives (T1/2) were calculated.
# [7] = Human plasma stability test; format: in vitro ADME; conditions: 37 °C, up to 24 h, read-out: t1/2 (Human Plasma) (converted)
# Method: as §7
# [8] = Homo sapiens, NCI-H460, H460, hypoxia, read-out: IC50 (Hypoxia)
# [9] = Homo sapiens, NCI-H460, H460, normoxia, read-out: IC50 (Normoxia)
# [10] = Homo sapiens, HCT-116, HCT116, hypoxia, read-out: IC50 (Hypoxia)
# [11] = Homo sapiens, HCT-116, HCT116, normoxia, read-out: IC50 (Normoxia)
# [12] = H460, HCR = normoxic IC50/hypoxic IC50
# [13] = HCT116, HCR = normoxic IC50/hypoxic IC50
SMILES,solubility [1] [µM],Permeability (Papp) [2],logD (LogD determination),IC50 (H460; [8]) [nM],IC50 (H460; [9]) [nM],IC50 (HCT116 [5]; [10]) [nM],IC50 (HCT116 [5]; [11]) [nM],IC50 (RKO) [nM],"IC50 (MCF7; MCF7, read-out: IC50 MCF7) [nM]",HCR (Hypoxia Cytotoxicity Ratio) (H460; [12]),"IC50 (HCT116 [3]; HCT-116, read-out: IC50 HCT116) [nM]","IC50 (MRC5; MRC5, read-out: IC50 MRC5) [nM]","IC50 (SW480; SW480, read-out: IC50 SW480) [nM]",HCR (Hypoxia Cytotoxicity Ratio) (HCT116 [5]; [13]),further results
"COc1ccc2c3c(c4cc(OC)c(OC)cc4c2c1)C[C@H]1CCCN1C3 [(R)-Antofine, (R)-antofine]",27 ± 2,−5.6 ± 0.58 Log [10^−6 cm/s],3.68 ± 0.03,25.4 ± 9,29.2 ± 12,16.7 ± 9,23.9 ± 7,,,,,,,,"IC50 (CHO-K1; CHO-K1, normoxia, read-out: IC50 CHO-K1): 33 ± 50 nM; IC50 (RKO; normoxia): 6 ± 1 nM; IC50 (MCF7; MCF7, normoxia, read-out: IC50 MCF7): 2 nM; Kel (elimination rate constant) (in vitro; mouse, 2 μM): 0.002 ± 0 min⁻¹; half-life at 2 μM (in vitro; mouse, microsomes): 1.12 ± 0.035 h; HCR (Hypoxia Cytotoxicity Ratio) (H460): 0.6; IC50 (HCT116 [3]; HCT-116, normoxia, read-out: IC50 HCT116): 2 nM; IC50 (MRC5; MRC5, normoxia, read-out: IC50 MRC5): 6 ± 2 nM; IC50 (HEK293; HEK293, normoxia, read-out: IC50 HEK293): 30 ± 43 nM; IC50 (SW480; SW480, normoxia, read-out: IC50 SW480): 9 ± 2 nM; fraction unbound [4]: 0.019; HCR (Hypoxia Cytotoxicity Ratio) (HCT116 [5]): 0.4"
COc1cc2c3c(c4cc(OC)c(OC)cc4c2cc1OC)CN1CCC[C@@H]1C3 [(R)-Tylophorine],,,,161 ± 77,175 ± 78,56.4 ± 35,1710 ± 965,338 ± 61,101 ± 88,1.1,440 ± 36,95 ± 6,1150 ± 244,0.6,
COc1cc2c3c(c4cc(OC)c(OC)cc4c2cc1OC)CN1CCC[C@H]1C3 [(S)-Tylophorine],2,−5.4 ± 0.17 Log [10^−6 cm/s],3.14 ± 0.02,102 ± 32,108 ± 28,50.1 ± 18,35.1 ± 15,202 ± 3,62 ± 13,1.1,85 ± 6,27 ± 2,69 ± 20,0.5,"IC50 (CHO-K1; CHO-K1, read-out: IC50 CHO-K1): 35 ± 42 nM; half-life at 2 μM (in vitro; microsomes): 2.12 ± 0.05 h; IC50 (HEK293; HEK293, read-out: IC50 HEK293): 16 ± 26 nM; fraction unbound [4]: 0.061"
CN(C)CCCN1c2ccccc2Sc2ccc(Cl)cc21 [Chlorpromazine],,−5.4 ± 0.13 Log [10^−6 cm/s],,,,,,,,,,,,,
CN1CCN(C2=Nc3cc(Cl)ccc3Nc3ccccc32)CC1 [Clozapine],,−5.1 ± 0.12 Log [10^−6 cm/s],,,,,,,,,,,,,
"COc1ccc2c3c(c4cc(OC)c(OC)cc4c2c1)C[C@H]1CCC[N+]1(Cc1c([N+](=O)[O-])ncn1C)C3.[Br-] (stereo partly drawn) [Compound 5a, (13aR)-2,3,6-trimethoxy-10-((1-methyl-4-nitro-1H-imidazol-5-yl)methyl)-10,11,12,13,13a,14-hexahydro-9H-dibenzo[f,h]pyrrolo[1,2-b]isoquinolin-10-ium bromide]",154,[…],[…],618 ± 44,15800,425 ± 51,[…],2030 ± 267,1530 ± 144,,1040 ± 21,327 ± 147,1350 ± 0.126,,"IC50 (CHO-K1; CHO-K1, read-out: IC50 CHO-K1): […]; Kel (elimination rate constant) (in vitro; mouse, 2 μM): […]; metabolized into the parent drug (in vitro; mouse, microsomes, 2 μM): […]; half-life at 2 μM (in vitro; mouse, microsomes): […]; HCR (Hypoxia Cytotoxicity Ratio) (H460): 26; DR (Deactivation Ratio) (H460; H460, normoxia): […]; half-life at 1 μM [6]: […]; half-life at 1 μM [7]: 145 ± 4.7 h; IC50 (HEK293; HEK293, read-out: IC50 HEK293): 5080 ± 519 nM; fraction unbound [4]: 0.13; HCR (Hypoxia Cytotoxicity Ratio) (HCT116 [5]): 8.8; DR (Deactivation Ratio) (HCT116 [5]; HCT116, normoxia): […]"
"COc1cc2c3c(c4cc(OC)c(OC)cc4c2cc1OC)C[N+]1(Cc2c([N+](=O)[O-])ncn2C)CCC[C@@H]1C3.[Br-] (stereo partly drawn) [Compound 5c, (13aR)-2,3,6,7-tetramethoxy-10-((1-methyl-4-nitro-1H-imidazol-5-yl)methyl)-10,11,12,13,13a,14-hexahydro-9H-dibenzo[f,h]pyrrolo[1,2-b]isoquinolin-10-ium bromide]",,,,6500 ± 1810,51000,3020 ± 656,9060 ± 7590,8820 ± 3080,8050 ± 343,,9020 ± 1130,3940 ± 127,9860 ± 1690,,"HCR (Hypoxia Cytotoxicity Ratio) (H460): 7.8; DR (Deactivation Ratio) (H460; H460, normoxia): 293; melting point: 185 to 187 °C; HCR (Hypoxia Cytotoxicity Ratio) (HCT116 [5]): 1.5; DR (Deactivation Ratio) (HCT116 [5]; HCT116, normoxia): 128"
Cn1c(COP(=O)(NCCBr)NCCBr)cnc1[N+](=O)[O-] [Evofosfamide],,,,17.2 ± 1,4320 ± 1930,20.1 ± 3,23.9 ± 7,,,251,,,,85,
COC(=O)Nc1nc2ccc(C(=O)c3ccccc3)cc2[nH]1 [Mebendazole],,,3.26 ± 0.01,,,,,,,,,,,,
Cc1nccn1CC1CCc2c(c3ccccc3n2C)C1=O (stereo not drawn) [Ondansetron],96 ± 3,,,,,,,,,,,,,,
CS(=O)(=O)OCCN(CCBr)c1c(C(=O)NCCO)cc([N+](=O)[O-])cc1[N+](=O)[O-] [PR-104A],,,,,,,,,,2.5,,,,10.5,"IC50 (H460; H460, hypoxia, read-out: IC50 (Hypoxia)): 533 ± 47 nM; IC50 (H460; H460, normoxia, read-out: IC50 (Normoxia)): 1340 ± 386 nM; IC50 (HCT116 [5]; HCT116, hypoxia, read-out: IC50 (Hypoxia)): 861 ± 122 nM; IC50 (HCT116 [5]; HCT116, normoxia, read-out: IC50 (Normoxia)): 16500 nM"
CC(C)[N+](C)(CCOC(=O)C1c2ccccc2Oc2ccccc21)C(C)C [Propantheline],,,,,,,,,,,,,,,half-life at 1 μM [6]: < 3 h; half-life at 1 μM [7]: < 3 h
CNC(=C[N+](=O)[O-])NCCSCc1ccc(CN(C)C)o1 [Ranitidine],,<−7 Log [10^−6 cm/s],,,,,,,,,,,,,
